From patent publication US7754709B2 (Solvay Pharmaceuticals BV, priority 2003, dated 2010)

Columns and labels:
Type in all cases: cell-based
[1] = target: T1, 17β-hydroxysteroid dehydrogenase type 3 (Homo sapiens, UniProt P37058); test: Inhibition of 17β-HSD type 3 in MCF-7 cells stably expressing the isoenzyme (HPLC, tritium labeled androstenedione); conditions: 2 nM androstenedione, read-out: % Inhibition of the 17β-HSD enzyme type 3 (HSD3); for inhibition at 1 µM: MCF7, 1 μM compound; for inhibition at 10 µM: MCF7, 10 μM compound
T1 construct: expressed in transfected cells; host or cells: MCF-7
T1 sequence (P37058 1-310): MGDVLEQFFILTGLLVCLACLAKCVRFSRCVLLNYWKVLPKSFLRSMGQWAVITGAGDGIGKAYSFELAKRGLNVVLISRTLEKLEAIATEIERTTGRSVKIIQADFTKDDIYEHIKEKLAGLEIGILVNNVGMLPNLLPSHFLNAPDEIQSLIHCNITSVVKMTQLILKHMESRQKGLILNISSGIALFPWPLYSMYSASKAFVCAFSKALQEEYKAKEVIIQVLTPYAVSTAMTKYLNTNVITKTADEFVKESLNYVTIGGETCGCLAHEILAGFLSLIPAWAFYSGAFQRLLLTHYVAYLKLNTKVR
Description: (§1) Biological Testing Materials and Methods 1. Inhibition of the 17β-hydroxysteroid dehydrogenase type 1, type 2 and type 3 enzyme
(§2) The compounds were screened in respect of 17β-HSD enzyme activity in vitro on established M CF-7 cell lines, each stably expressing one of the respective 17β-HSD isoenzymes. The interconversion of substrate by each isoenzyme and the 17β-HSD inhibiting activity of chemical compounds in these cell lines were detected by HPLC system.
(§3) Varying amounts of the test compounds were incubated in the growth medium of the 17β-HSD expressing cells together tritium labeled substrate (2 nM estrone for 17β-HSD type 1; 2 nM estradiol for 17β-HSD type 2; and 2 nM androstenedione for 17β-HSD type 3). The medium samples were removed after exact incubation time and the reaction is stopped by trichloroacetic acid (TCA). The samples were analyzed by HPLC-coupled flow scintillation analysis.
(§4) For each enzyme type, the HSD-inhibiting activity of an individual test compound was calculated by comparing the conversion of a control sample without any test compound (referred to as “Negative Control”) to the (reduced) conversion of the test sample containing the particular compound to be tested (referred to as “Test Sample”).
(§5) Two concentrations of each compound were used. The number of the compound refers to the numbers indicated in the Experimental Section.

[2] = target: T2, 17β-hydroxysteroid dehydrogenase type 2 (Homo sapiens, UniProt P37059); test: Inhibition of 17β-HSD type 2 in MCF-7 cells stably expressing the isoenzyme (HPLC, tritium labeled estradiol); conditions: 2 nM estradiol, read-out: % Inhibition of the 17β-HSD enzyme type 2 (HSD2); for inhibition at 1 µM: MCF7, 1 μM compound; for inhibition at 10 µM: MCF7, 10 μM compound
T2 construct: expressed in transfected cells; host or cells: MCF-7
T2 sequence (P37059 1-387): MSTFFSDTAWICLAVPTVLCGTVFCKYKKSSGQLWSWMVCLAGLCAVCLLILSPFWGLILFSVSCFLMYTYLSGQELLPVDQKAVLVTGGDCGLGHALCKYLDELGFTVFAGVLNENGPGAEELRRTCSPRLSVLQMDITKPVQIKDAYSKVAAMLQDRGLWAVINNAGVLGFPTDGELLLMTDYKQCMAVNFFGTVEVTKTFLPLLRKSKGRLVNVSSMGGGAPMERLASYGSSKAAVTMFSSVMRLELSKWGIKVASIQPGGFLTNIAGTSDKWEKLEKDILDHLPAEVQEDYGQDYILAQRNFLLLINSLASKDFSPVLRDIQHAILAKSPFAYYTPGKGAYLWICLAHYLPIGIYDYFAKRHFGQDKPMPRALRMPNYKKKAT
Description: as §1, §2, §3, §4, §5

[3] = target: T3, 17β-hydroxysteroid dehydrogenase type 1 (Homo sapiens, UniProt P14061); test: Inhibition of 17β-HSD type 1 in MCF-7 cells stably expressing the isoenzyme (HPLC, tritium labeled estrone); conditions: 2 nM estrone, read-out: % Inhibition of the 17β-HSD enzyme type 1 (HSD1); for inhibition at 1 µM: MCF7, 1 μM compound; for inhibition at 10 µM: MCF7, 10 μM compound
T3 construct: expressed in transfected cells; host or cells: MCF-7
T3 sequence (P14061 1-328): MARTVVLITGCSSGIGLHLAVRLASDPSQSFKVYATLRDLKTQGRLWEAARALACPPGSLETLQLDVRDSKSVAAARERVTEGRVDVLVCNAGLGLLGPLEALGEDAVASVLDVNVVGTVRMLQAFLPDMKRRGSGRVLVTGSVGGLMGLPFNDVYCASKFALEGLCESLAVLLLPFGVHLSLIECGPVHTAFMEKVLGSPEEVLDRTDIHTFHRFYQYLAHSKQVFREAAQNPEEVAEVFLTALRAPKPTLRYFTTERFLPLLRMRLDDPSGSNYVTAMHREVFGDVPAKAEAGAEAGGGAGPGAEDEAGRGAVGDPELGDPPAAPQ
Description: as §1, §2, §3, §4, §5

Compound	inhibition at 1 µM [1]	inhibition at 10 µM [1]	inhibition at 1 µM [2]	inhibition at 10 µM [2]	inhibition at 1 µM [3]	inhibition at 10 µM [3]
O=CC1=C(Cl)c2sc3nc4n(c(=O)c3c2CC1)CCCCCC4C=O (stereo not drawn) [Compound 11, 4-Chloro-1,2,7,9, 10,11,12,14-octahydro-14-oxo-8H-[1]benzothieno[2′,3′:4,5]pyrimido-[1,2-a]-azocine-3,7-dicarbaldehyde]	7.3%	31.7%	16.7%	28.3%	4.7%	51.1%
O=Cc1ccc2c(sc3nc4n(c(=O)c32)CCCCC4)c1Sc1ccccc1 [Compound 12, 7,8,9,10,11,13-Hexahydro-13-oxo-4-(phenylthio)-[1]benzothieno[2′,3′:4,5]pyrimido[1,2-a]azepine-3-carbaldehyde]	8.6%	25.5%	7%	8.9%	15.1%	87.9%
O=c1c2c3c(sc2nc2n1CCCCCC2)C(O)CCC3 (stereo not drawn) [Compound 13, 1,2,3,4,7,8,9,10,11,12-Decahydro-4-hydroxy-14H-[1]benzothieno[2′,3′:4,5]pyrimido[1,2-a]azocin-14-one]	-2.2%	11.7%	1.7%	18.6%	5%	20%
CC1CCc2nc3sc4c(c3c(=O)n2CC1)CCCC4 (stereo not drawn) [Compound 14, 9-Methyl-2,3,4,7,8,9,10,11-octahydro-[1]benzothieno[2′,3′:4,5]pyrimido[1,2-a]azepin-13(1H)-one]	27.6%	34.2%	5.9%	14.9%	12.8%	19.6%
CCOC(=O)C1CCCn2c1nc1sc3c(c1c2=O)CCCC3 (stereo not drawn) [Compound 15, 1,2,3,4,7,9,10,12-Octahydro-12-oxo-8H-[1]benzothieno[2,3-d]pyrido[1,2-a]pyrimidine-7-carboxylic acid ethyl ester]	-0.3%	13.5%	10.7%	15.7%	14.8%	24.5%
CCOC(=O)C1CCc2nc3sc4c(c3c(=O)n2CC1)CCCC4 (stereo not drawn) [Compound 16, 1,2,3,4,7,8,9,10,11,13-Decahydro-13-oxo-[1]benzothieno[2′,3′:4,5]pyrimido[1,2-a]azepine-9-carboxylic acid ethyl ester]	13.6%	22.9%	3%	24.8%	17.2%	18.6%
CC1CCc2nc3sc4c(c3c(=O)n2CC1)CCCC4=O (stereo not drawn) [Compound 17, 2,3,8,9,10,11-Hexahydro-9-methyl-[1]benzothieno[2′,3′: 4,5]pyrimido[1,2-a]azepine-4,13(1H,7H)-dione]	21.6%	32.4%	15.2%	20.1%	18.4%	39.4%
CCOC(=O)C1CCCn2c1nc1sc3c(c1c2=O)CCCC3=O (stereo not drawn) [Compound 18, 4,12-Dioxo-1,2,3,4,7,9,10,12-octahydro-8H-[1]benzothieno[2,3-d]pyrido[1,2-a]pyrimidine-7-carboxylic acid ethyl ester]	-3%	21.3%	18.7%	23.8%	0.5%	9.5%
CCOC(=O)C1CCc2nc3sc4c(c3c(=O)n2CC1)CCCC4=O (stereo not drawn) [Compound 19, 4,13-Dioxo-1,2,3,4,7,8,9,10,11,13-decahydro-[1]benzothieno[2′,3′: 4,5]pyrimido[1,2-a]azepine-9-carboxylic acid ethyl ester]	13%	10.5%	0.6%	4.4%	10.6%	33.1%
CC1CCc2nc3sc4c(c3c(=O)n2CC1)CCC(C=O)=C4Cl (stereo not drawn) [Compound 20, 4-Chloro-9-methyl-1,2,7,8,9,10,11,13-octahydro-13-oxo-[1]benzothieno[2′,3′: 4,5]pyrimido [1,2-a]azepine-3-carbaldehyde]	32%	100%	11.2%	6.2%	10.4%	45.7%

Now from value to compound:

inhibition at 1 µM [1]	inhibition at 10 µM [1]	inhibition at 1 µM [2]	inhibition at 10 µM [2]	inhibition at 1 µM [3]	inhibition at 10 µM [3]	Compound
10.5%	100%	8.9%	18.6%	74%	100%	CCCSC1=C(C=O)CCc2c1sc1nc3n(c(=O)c21)CCCCC3 [Compound 5c, 1,2,7,8,9,10,11,13-Octahydro-13-oxo-4-(propylthio)[1]benzothieno[2′,3′:4,5]-pyrimido-[1,2-a]azepine-3-carboxaldehyde]
32.6%	72%	8.2%	15.1%	54.1%	100%	CCCCSC1=C(C=O)CCc2c1sc1nc3n(c(=O)c21)CCCCC3 [Compound 5d, 1,2,7,8,9,10,11,13-Octahydro-13-oxo-4-(butylthio)[1]benzothieno[2′,3′:4,5]-pyrimido-[1,2-a]azepine-3-carboxaldehyde]
50.8%	86.3%	8.4%	20.2%	71.9%	100%	CC(C)SC1=C(C=O)CCc2c1sc1nc3n(c(=O)c21)CCCCC3 [Compound 5e, 1,2,7,8,9,10,11,13-Octahydro-13-oxo-4-(isopropylthio)[1]benzothieno[2′,3′:4,5]-pyrimido-[1,2-a]azepine-3-carboxaldehyde]
22.5%	80.5%	11.6%	17.3%	43.9%	100%	CCCSC1=C(C=O)CCc2c1sc1nc3n(c(=O)c21)CCCCCC3 [Compound 5i, 1,2,7,9,10,11,12,14-octahydro-14-oxo-4-(propylthio)-8H-[1]benzothieno[2′,3′:4,5]pyrimido-[1,2-a]-azocine-3-carbaldehyde]
45.9%	48.9%	11.6%	42.5%	51.8%	100%	O=c1c2c3c(sc2nc2n1CCCCC2)C(Sc1ccccc1)=C(CO)CC3 [Compound 6a, 1,2,7,8,9,10,11,13-Octahydro-13-oxo-4-(phenylthio)[1]benzothieno[2′,3′:4,5]-pyrimido-[1,2-a]azepine-3-hydroxymethyl]
20.4%	38.1%	37.5%	36.7%	47.7%	82.4%	CCCSC1=C(CO)CCc2c1sc1nc3n(c(=O)c21)CCCCC3 [Compound 6c, 1,2,8,9,10,11-Hexahydro-3-(hydroxymethyl)-4-(propylthio)-[1]benzothieno[2′,3′:4,5]-pyrimido-[1,2-a]azepine-13(7H)-one]
